Patent US20160000823A1, “METHODS AND COMPOSITIONS FOR IMPROVING HEMOSTASIS” (Mast Therapeutics, Inc., priority 2014, published 2016)
“Also recorded” adds a separate entry of the source.

Experiments:
t-PA induced bleeding = assay: Rat tail bleeding model with tissue plasminogen activator; format: in vivo
Description: Tissue plasminogen activator (t-PA) is used clinically to lyse occlusive thrombi. Bleeding complications that result from the unwanted lysis of hemostatic clots limits its use. TA is a synthetic derivative of the amino acid lysine that acts as a fibrinolytic inhibitor and is used clinically to antagonize unwanted bleeding. The effect oft-PA induced bleeding and its antagonism with TA was assessed in a rat tail bleeding model. Rats were anaesthetized by intraperitoneal injection of pentobarbital at 50 mg/kg. The thrombolytic agent t-PA was intravenously injected at a dose of 1 mg/kg, alone or in combination with TA at a dose of 5 mg/kg or 10 mg/kg. Another group of rats were administered 5 mg/kg TA alone. Control rats were administered saline. Each treatment group contained 7-10 rats.
Following treatment, rat tails were amputated about 4 mm from the tip and the tails were immersed in normal saline at 37° C. The bleeding time was determined as the time for complete cessation of blood flow from the amputated tail by visual inspection.
The relative ability of P188 to antagonize t-PA induced bleeding (compared to TA) was studied by evaluating P188 in the same rat tail bleeding model as described in Example 3. […]
Rat tails were amputated about 4 mm from the tip and the tails were immersed in normal saline at 37° C. and bleeding time was assessed as described in Example 3. […]

[1] = tested on: embolic middle cerebral artery occlusion; assay: Embolic MCAO stroke model: modified neurological severity score (mNSS); format: in vivo, rat; conditions: same schedule
Description: (§1) tPA is an effective treatment for acute stroke. Its use is limited by a narrow treatment window (3.5-4.5 hours from onset of stroke) and a greater risk of intracerebral hemnorrhage. […] To show this, the effects of administration of tPA alone, and tPA in combination with P188 were studied in a rat model of embolic middle cerebral artery occlusion. Male Wistar rats (N=10), 3-4 months old and weighing 350-400 g were subjected to embolic middle cerebral artery occlusion (MCAO) as described by Zhang (Zhang R L et al. A rat model of focal embolic cerebral ischemia. Brain Res. 1997, 766:83-92). Following occlusion, neurologic deficit was assessed 30 minutes after MCAO using a 5 point neurological scale (Longa scale; Longa et al., (1989) Stroke 20:84-91).
(§2) To compare the two treatments, P188 in combination with tPA and tPA alone were administered according to the schedule provided in Table 2. The dose of P188 was administered in a volume of 1.0 ml infused over a period of 1 hr by intravenous (IV) infusion via a tail vein. […] At 1 and 7 days after stroke onset (MCAO), clinical neurological function was assessed using the adhesive removal test and modified neurological severity score (mNSS) (Li Y, Chen J, Wang L, Lu M, Chopp M. Treatment of stroke with intracarotid administration of marrow stromal cells. Neurology 2001, 56: 1666-1672). […]

[2] = tested on: embolic middle cerebral artery occlusion; assay: Embolic MCAO stroke model: lesion volume; format: in vivo, rat; conditions: day 7 after MCAO, H&E coronal sections
Description: as §1, §2

[3] = tested on: embolic middle cerebral artery occlusion; assay: Embolic MCAO stroke model: adhesive removal test; format: in vivo, rat
Description: as §1, §2

[4] = tested on: embolic middle cerebral artery occlusion; assay: Embolic MCAO stroke model: gross hemorrhage; format: in vivo, rat; conditions: day 7 after MCAO, n=10 per group
Description: as §1
as §2, with “2.” for “2. The dose of P188 was administered in a volume of 1.0 ml infused over a period of 1 hr by intravenous (IV) infusion via a tail vein.”
The harvested brains also were assessed for the incidence of gross hemorrhage, defined as blood evident to the unaided eye on the H&E stained coronal sections. […]

Compound | t-PA induced bleeding (t-PA induced bleeding; t-PA 1 mg/kg IV in combination with TA 5 or 10 mg/kg (FIG. 14)) | average mNSS score ([1]; 1 day after MCAO) | average mNSS score ([1]; 7 days after MCAO) | average lesion volume [2] | average time to tape removal ([3]; day 1 after MCAO, tPA 10 mg/kg IV at 4 hr, P188 300 mg/kg IV at 3.5 hr and 2,000 mg/kg ip at 9.5 hr) | average time to tape removal ([3]; day 7 after MCAO, same schedule) | bleeding time of amputated tail (t-PA induced bleeding; t-PA alone 1 mg/kg IV, versus saline) | animals exhibiting gross hemorrhage [4] [%]
NC[C@H]1CC[C@H](C(=O)O)CC1 [TA, tranexamic acid, reference compound] | dose dependent reduction | – | – | – | – | – | – | –
tissue plasminogen activator [t-PA] | – | approximately 10.5 | approximately 8.5 | approximately 35 % of contralateral hemisphere | approximately 120 seconds | approximately 100 seconds | marked prolongation of bleeding time; also recorded: increased bleeding time | 30
